Measured values taken from publication PMC9181126, “Design, Synthesis, Molecular Docking Analysis and Biological Evaluations of 4-[(Quinolin-4-yl)amino]benzamide Derivatives as Novel Anti-Influenza Virus Agents” (International Journal of Molecular Sciences, 2022).

Key:
[1] = target: ribonucleoprotein (RNP) of influenza virus (Influenza A virus, UniProt P15659); experiment: cell-based; settings: HEK-293T, read-out: RNP Reconstitution Assay Inhibition Rate; for inhibition at 100 µM: concentration 100 µM
[2] = system: influenza virus A/WSN/33 (H1N1); experiment: microbe, parasite or virus in culture; type: cell-based; settings: MDCK, 72 h; for inhibition at 12.5 µM / inhibition at 25 µM / inhibition at 50 µM / inhibition at 100 µM: H1N1|WSN, read-out: Antiviral activity in CPE assay; for EC50: read-out: Cytopathic Effect Assay (A/WSN/33, H1N1) EC50
[3] = system: influenza B virus; experiment: Plaque inhibition assay in MDCK cells; type: cell-based
[4] = system: A/PR/8 (H1N1); experiment: Plaque inhibition assay in MDCK cells; type: cell-based; settings: Influenza A virus
[5] = in vitro; type: cell-based, canine; settings: dog
Outline: (§1)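 Cells were seeded and compound medium added after 48 h, then incubated 72 h at 37 °C, 5% CO2. Viability was measured by MTT (4 h), then solubilization and absorbance at 620 nm after a further 3 h. DMSO-only wells were taken as 100% viable.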

[6] = system: MDCK cells; experiment: in vitro; type: cell-based, canine; settings: dog, 72 h
Outline: as §1

[7] = system: HEK293T cells; experiment: in vitro; type: cell-based; settings: human, 72 h
Outline: as §1

[8] = in vitro; type: cell-based; settings: human
Outline: as §1

[9] = system: A/HK/68 (H3N2); experiment: Plaque inhibition assay in MDCK cells; type: cell-based; settings: Influenza A virus
[10] = system: influenza virus A/WSN/33 (H1N1); experiment: Plaque inhibition assay in MDCK cells; type: cell-based; settings: for IC50: MDCK cells; for inhibition at 100 µM: concentration 100 µM
[11] = system: A/WSN/33, H1N1; set-up: method as in PMID 25333287; settings: cited from earlier work
[12] = MDCK, read-out: Plaque Inhibition Assay (A/WSN/33, H1N1) Inhibition Rate

Row | SMILES | inhibition at 100 µM [1] [%] | inhibition at 12.5 µM [2] [%] | inhibition at 25 µM [2] [%] | inhibition at 50 µM [2] [%] | inhibition at 100 µM [2] [%] | EC50 [2] [µM] | CC50 at 72 h [5] [µM] | MDCK cells survival rate ([6]; 12.5 µmol·L−1) [%] | MDCK cells survival rate ([6]; 25 µmol·L−1) [%] | MDCK cells survival rate ([6]; 50 µmol·L−1) [%] | MDCK cells survival rate ([6]; 100 µmol·L−1) [%] | HEK293T cells survival rate ([7]; 3.125 µmol·L−1) [%] | HEK293T cells survival rate ([7]; 6.25 µmol·L−1) [%] | HEK293T cells survival rate ([7]; 12.5 µmol·L−1) [%] | HEK293T cells survival rate ([7]; 25 µmol·L−1) [%] | HEK293T cells survival rate ([7]; 50 µmol·L−1) [%] | HEK293T cells survival rate ([7]; 100 µmol·L−1) [%] | CC50 at 72 h [8] [µM] | inhibition at 100 µM [10, 12] [%] | melting point [°C] | other results
1 | COc1ccccc1OCCNC(=O)c1ccc(Nc2ccnc3cc(C(F)(F)F)ccc23)cc1 [Compound G07, N-[2-(2-Methoxyphenoxy)ethyl]-4-{[7-(trifluoromethyl)quinolin-4-yl]amino}benzamide] | 80.7 | 61.4 ± 6.86 | 78.2 ± 8.28 | 107 ± 2.43 | 112 ± 4.3 | 11.4 ± 1.89 | > 100 | 140.55±9.82 | 115.87±11.06 | 256.24±17.89 | 115.75±5.12 | 106.60±2.14 | 97.91±1.23 | 91.58±3.34 | 87.01±2.19 | 90.17±2.90 | 81.39±7.21 | > 100 | 95.9 |  | IC50 [3]: 11 ± 1.16 µM; IC50 [4]: 11.4 ± 2.38 µM; IC50 [9]: 7.51 ± 1.76 µM; IC50 [10]: 0.23 ± 0.15 µM
2 | COc1ccccc1OCCNC(=O)c1ccc(Nc2ccnc3c(C)cccc23)cc1 [Compound G20, N-[2-(2-Methoxyphenoxy)ethyl]-4-[(8-methylquinolin-4-yl)amino]benzamide] |  | 72 ± 6.36 | 28.6 ± 1.61 | 30.9 ± 0.88 | 31.1 ± 0.49 | > 100 | < 10 | 45.97±9.1 | 8.61±0.42 | 8.88±0.51 | 8.66±0.17 | 96.66±8.01 | 91.48±3.65 | 94.07±9.07 | 87.46±21.36 | 80.21±1.35 | 60.29±0.35 | > 100 |  | 150.2 to 151.7 | inhibition at 12.5 µM ([1]; concentration 12.5 µM): 6.69%; inhibition at 6 µM ([10]; MDCK, concentration 6 µM, read-out: Plaque Inhibition Assay (A/WSN/33, H1N1) Inhibition Rate): 74.3%
3 | COc1ccccc1OCCNC(=O)c1ccc(Nc2ccnc3cc(OC(F)(F)F)ccc23)cc1 [Compound G22, N-[2-(2-Methoxyphenoxy)ethyl]-4-{[7-(trifluoromethoxy)quinolin-4-yl]amino}benzamide] | 43.9 | 112 ± 6.15 | 108 ± 8.75 | 106 ± 5.94 | 97.4 ± 10.2 | < 10 | > 100 | 95.78±2.47 | 99.56±3.73 | 104.22±9.18 | 118.12±6.49 | 117.25±6.52 | 103.91±6.77 | 91.65±2.90 | 89.97±4.08 | 88.83±5.80 | 86.07±5.65 | > 100 | 20 | 229.5 to 230.7 | 
4 | COc1ccccc1OCCNC(=O)c1ccc(Nc2ccnc3cc([N+](=O)[O-])ccc23)cc1 [Compound G23, N-[2-(2-Methoxyphenoxy)ethyl]-4-[(7-nitroquinolin-4-yl)amino]benzamide] | 56.6 | 146 ± 3.38 | 143 ± 6.11 | 119.8 ± 0.68 | 119 ± 7.71 | < 10 | > 100 | 101.22±6.39 | 106.22±9.35 | 100.33±3.53 | 91.28±3.45 | 93.57±3.31 | 96.34±4.31 | 95.29±3.05 | 89.02±3.47 | 96.62±7.74 | 88.11±4.02 | > 100 | 77.9 | 217 to 218.5 | 
5 | COc1ccccc1OCCNC(=O)c1ccc(Nc2ccnc3ccc(C(F)(F)F)cc23)cc1 [Compound G26, N-[2-(2-Methoxyphenoxy)ethyl]-4-{[6-(trifluoromethyl)quinolin-4-yl]amino}benzamide] | 22.6 | 15.7 ± 1.06 | 16.8 ± 2.11 | 36.8 ± 1.79 | 49.7 ± 6.09 | > 100 | > 100 | 103.03±1.26 | 105.52±6.56 | 122.08±7.85 | 133.91±11.97 | 104.54±2.55 | 83.92±2.40 | 78.70±2.98 | 74.64±5.24 | 72.10±1.56 | 70.01±9.07 | > 100 | < 10 | 225.3 to 227.3 | 
6 | NC12CC3CC(CC(C3)C1)C2 [amantadine, reference compound] |  |  |  |  |  |  |  |  |  |  |  |  |  |  |  |  |  |  |  |  | IC50 [3]: > 100 µM; IC50 [4]: 64.2 ± 7.21 µM; IC50 [9]: 2.22 ± 0.57 µM; IC50 [10]: > 100 µM
7 | CCN(CC)Cc1cc(Nc2ccnc3cc(Cl)ccc23)ccc1O [amodiaquine] |  |  |  |  |  |  |  |  |  |  |  |  |  |  |  |  |  |  |  |  | EC50 [11]: 6.3 µM
